Data on one molecule can be found in patent publication US7985774B2, “Use of 3,5-seco-4-nor-cholestane derivatives for obtaining a cytoprotective drug” (Trophos, priority 2006, dated 2011).

Test [1] deals with caspase-3. As to the kind of experiment: Caspase-3 activity (apoptosis) after doxorubicin. The format is cell-based, rabbit. The settings on record: 8 hrs after exposure, control 19±9. As for the experimental part:
Isolated ventricular cells are obtained from hearts of male New Zealand rabbits as described in A. d'Anglemont de Tassigny et al., Fund. Clin. Pharmacol, 18: 531-38, 2004. Briefly, the rabbits (2.0-2.5 kg) are anaesthetized with a pentobarbital solution (50 mg/kg) and they then receive heparin (200 IU/kg). The hearts are excised and immediately perfused, for 10-15 minutes by means of a Langendorff apparatus without recirculation with an oxygenated tyrode (calcium-free) isotonic solution (95%, 2-5% CO2) (in mM: NaCl 135, KCl 5.4, Na2PO4 0.33, MgCl2 1.0, HEPES 10, pH adjusted to 7.4 with 1N NaOH at 37° C., 280-300 mOsmol/kgH2O). Next, all the hearts are perfused for 3 minutes in the “recirculation” mode with the same calcium-free Tyrode solution (coronary flow rate, 10-15 mL/min) added with 1 mg/mL of type II collagenase and 0.28 mg/mL of XIV type protease. Finally, all the hearts are perfused in a mode without any recirculation with the same solution of Tyrode supplemented with 0.3 mM of CaCl2 for 10 min. The left ventricle is removed and cut into small pieces; cell dissociation is achieved by mild mechanical stirring. Extracellular calcium is added by increments every 15 minutes, in order to reach a physiological concentration of 1.0 mM. […]
Caspase-3 activity is used as a quantitative method for measuring apoptosis. […] The fluorogenic substrate for measuring caspase-3 activity (DEVD) is marked with the fluorochrome, 7-amino-4-methyl coumarine (AMC), which produces […] fluorescence detectable in UV light at 360/460 nm for 210 min. […]
Apoptosis is induced in isolated cardiomyocytes by 3-8 hour exposure to 1 μM of doxorubicin added into an isotonic solution containing (in mM) NaCl 110, KCl 5.4, Na2PO4 0.33, NaHCO3 25, glucose 5, MgCl2 0.8, CaCl2 1, pH adjusted to 7.4. […] The contractility of cardiomyocytes was measured every hour during the 8 hrs of exposure to doxorubicin. […]

Test [2] has as its system CD1 mice. Description: Acute hepatotoxicity: lethal intoxication by the Jo2 antibody (survival). The format is in vivo. The settings on record: for Survival rate: 24 hrs. As for the experimental part: Male adult CD1 mice from the breeder “Elevage Janvier”, (Le Genest-Saint-Isle, France) were used. The animals were identified individually and had free access to water and food.
A stock solution of monoclonal hamster anti-mouse CD95 (Fas) antibody, called Jo2, from Pharmingen (BD Biosciences, ref. 554254 batch 32699) is prepared at a concentration of 1 mg/mL in water. The dilutions used are made in 0.9% sodium chloride in water.
The desired amount of 3,5-seco-4-nor-cholestan-5-one oxime-3-ol is weighed and milled into a fine powder, and then mixed with Cremophore EL (Sigma C5135) and absolute ethanol (Carlo Erba RPE 41571) (5% and 10% of the final volume, respectively). After complete dissolution, 0.9% sodium chloride in water is added extemporaneously (85% of the final volume).
In this experiment, the effect of 3,5-seco-4-nor-cholestan-5-one oxime-3-ol on the survival of animals after administering a lethal dose of the Jo2 antibody is evaluated.
The Jo2 antibody is administered by intraperitoneal injection at a dose of 200 ou 250 μg/kg in a volume of 5 mL/kg of body weight.
3,5-seco-4-nor-cholestan-5-one oxime-3-ol is tested at 10 and 30 mg/kg, as a pretreatment, 1 hr before administering Jo2 or as a post-treatment, 1 hr after administering Jo2.
A control is obtained with animals receiving pretreatment by intraperitoneal administration, 1 hr before or 1 hr after administering the antibody, of an identical volume of solution having been used for preparing the compound to be tested, without the compound.

Consider `CC(C)CCC[C@@H](C)[C@H]1CC[C@H]2[C@@H]3CC/C(=N\O)[C@](C)(CCCO)[C@H]3CC[C@]12C` [3,5-seco-4-nor-cholestan-5-one oxime-3-ol], for which the figures for the caspase-3 activity in test [1] (doxorubicin 1 μM + compound 0.1 μM) and in test [1] (doxorubicin 1 μM + compound 0.3 μM) were 27 ± 20 fmol/min and 15 ± 7 fmol/min, respectively. Further, the Survival rate is on record as 60% in test [2] (Experience 5: Jo2 200 μg/kg, 10 mg/kg post-treatment, control 30); 60% in test [2] (Experience 6: Jo2 200 μg/kg, 30 mg/kg post-treatment, control 20); 65% in test [2] (Experiment 1: Jo2 250 μg/kg, 10 mg/kg pretreatment, control 25); 90% in test [2] (Experiment 2: Jo2 250 μg/kg, 30 mg/kg pretreatment, control 10); 15% in test [2] (Experiment 3: Jo2 250 μg/kg, 10 mg/kg post-treatment, control 10); 35% in test [2] (Experiment 4: Jo2 250 μg/kg, 30 mg/kg post-treatment, control 5). For the same molecule, the “Mortality (24 hrs)/total number of animals” value is on record as 8/20 in test [2] (Experience 5: Jo2 200 μg/kg, 10 mg/kg post-treatment, control 14/20); 8/20 in test [2] (Experience 6: Jo2 200 μg/kg, 30 mg/kg post-treatment, control 16/20); 7/20 in test [2] (Experiment 1: Jo2 250 μg/kg, 10 mg/kg pretreatment, control 15/20); 2/20 in test [2] (Experiment 2: Jo2 250 μg/kg, 30 mg/kg pretreatment, control 18/20); 17/20 in test [2] (Experiment 3: Jo2 250 μg/kg, 10 mg/kg post-treatment, control 18/20); 13/20 in test [2] (Experiment 4: Jo2 250 μg/kg, 30 mg/kg post-treatment, control 19/20).
